Source: US20200281918A1, “CALCIUM RELEASE-ACTIVATED CALCIUM CHANNEL MODULATORS FOR TREATING HEMATOLOGICAL AND SOLID CANCERS” (Rhizen Pharmaceuticals SA, priority 2017, published 2020)

Experiments:
NCI-H1975 cells = test: Induction of Caspase 3 (Millipore Caspase-3 kit, fluorimetric); type: cell-based; details: 48 hours, 10-10,000 nM (FIG. 1)
Procedure: (§1) NCH-H460, A549 and NCI-H1975 cells were incubated with desired concentrations of the test compound for 48 hours. An equal number of cells per well (0.3×10^6 cells) were used. The increase in apoptosis manifested by an elevation in caspase-3 levels was determined using a Caspase-3 kit from Millipore. Induction of Caspase 3 by Compound (A) was measured fluorimetrically.

NCH-H460 cells = test: as above; type: cell-based; details: 48 hours, 10-10,000 nM (FIG. 1)
Procedure: as §1

A549 cells [1] = test: as above; type: cell-based; details: 48 hours, 10-10,000 nM (FIG. 1)
Procedure: as §1

G-402 = test: Apoptosis (activated caspase-3 antibody) panel; type: cell-based
Procedure: (§2) An antibody to activated caspase-3 was used to label cells from early to late stage apoptosis. The concentration of Compound (A) that caused a 2-fold induction in the caspase-3 signal was determined, indicating a significant apoptosis induction.

DOHH-2 = test: Apoptosis (activated caspase-3 antibody) panel; type: cell-based
Procedure: as §2

SK-BR-3 = test: Apoptosis (activated caspase-3 antibody) panel; type: cell-based
Procedure: as §2

NCI-H661 = test: Apoptosis (activated caspase-3 antibody) panel; type: cell-based
Procedure: as §2

C32 = test: Apoptosis (activated caspase-3 antibody) panel; type: cell-based
Procedure: as §2

SH-4 = test: Apoptosis (activated caspase-3 antibody) panel; type: cell-based
Procedure: as §2

AGS = test: Apoptosis (activated caspase-3 antibody) panel; type: cell-based
Procedure: as §2

A427 = test: Apoptosis (activated caspase-3 antibody) panel; type: cell-based
Procedure: as §2

Hs 578T = test: Apoptosis (activated caspase-3 antibody) panel; type: cell-based
Procedure: as §2

U266B1 = test: Apoptosis (activated caspase-3 antibody) panel; type: cell-based
Procedure: as §2

SW1088 = test: Apoptosis (activated caspase-3 antibody) panel; type: cell-based
Procedure: as §2

MDA MB 468 = test: Apoptosis (activated caspase-3 antibody) panel; type: cell-based
Procedure: as §2

A7 = test: Apoptosis (activated caspase-3 antibody) panel; type: cell-based
Procedure: as §2

ARH-77 = test: Apoptosis (activated caspase-3 antibody) panel; type: cell-based
Procedure: as §2

PANC-1 = test: Apoptosis (activated caspase-3 antibody) panel; type: cell-based
Procedure: as §2

Calu6 = test: Apoptosis (activated caspase-3 antibody) panel; type: cell-based
Procedure: as §2

RKOE6 = test: Apoptosis (activated caspase-3 antibody) panel; type: cell-based
Procedure: as §2

HCT-116 = test: Apoptosis (activated caspase-3 antibody) panel; type: cell-based
Procedure: as §2

SKO-007 = test: Apoptosis (activated caspase-3 antibody) panel; type: cell-based
Procedure: as §2

ACHN = test: Apoptosis (activated caspase-3 antibody) panel; type: cell-based
Procedure: as §2

PC-3 = test: Apoptosis (activated caspase-3 antibody) panel; type: cell-based
Procedure: as §2

769-P = test: Apoptosis (activated caspase-3 antibody) panel; type: cell-based
Procedure: as §2

786-O = test: Apoptosis (activated caspase-3 antibody) panel; type: cell-based
Procedure: as §2

Wi38 = test: Apoptosis (activated caspase-3 antibody) panel; type: cell-based
Procedure: as §2

MDA MB 231 = test: Apoptosis (activated caspase-3 antibody) panel; type: cell-based
Procedure: as §2

T98G = test: Apoptosis (activated caspase-3 antibody) panel; type: cell-based
Procedure: as §2

AsPC-1 = test: Apoptosis (activated caspase-3 antibody) panel; type: cell-based
Procedure: as §2

RD = test: Apoptosis (activated caspase-3 antibody) panel; type: cell-based
Procedure: as §2

DB = test: Apoptosis (activated caspase-3 antibody) panel; type: cell-based
Procedure: as §2

RKO-AS45-1 = test: Apoptosis (activated caspase-3 antibody) panel; type: cell-based
Procedure: as §2

[2] = system: NCI-H460 human non-small cell lung tumor xenografts; test: NCI-H460 human non-small cell lung cancer xenograft model; type: in vivo, female Balb/c nude mice
Procedure: (§3) The anti-tumor effect of Compound (A) was determined as a single agent in a NCI-H460 human non-small cell lung cancer xenografts model using female Balb/c nude mice. 10^6 cells were injected into the flank region. A week after tumor cell injection, mice either received the vehicle, oral administration of Compound (A) at 30 mg/kg BID or intravenous administration of taxol at 10 mg/kg Q3D (every three days) across a 15 day period. At the end of the study period, animals were sacrificed and the tumors harvested.

[3] = system: panel of cancer cell lines; test: Anti-proliferative effect (MTT assay); type: cell-based; details: majority of the cell lines tested, 48-72 hours, MTT (FIG. 3)
Procedure: (§4) A panel of cancer cell lines representing various different types of cancers were plated in 96-well plates and incubated with desired concentrations of Compound (A) for 48-72 hours. At the end of the incubation period, MTT ((3-(4,5-dimethylthiazol-2-yl)-2,5-diphenyltetrazolium bromide)) was added. The plates were placed on a shaker for 5 minutes to mix the formazan and the optical density at 560 nm was measured using a spectrophotometer. Data were plotted using Graphpad Prism for calculation of the GI50 concentrations.

[4] = system: normal lung cell line WI-38; test: Anti-proliferative effect (MTT assay); type: cell-based; details: WI-38, MTT, 48-72 hours
Procedure: as §4

NFkB = test: Western blotting of markers in Jurkat cells; type: cell-based; details: 24 hours, 10, 100, 1000 nM (FIG. 4)
Procedure: (§5) Cell lines were plated in RPMI media at a pre-determined density in a 6-well plate. After overnight incubation, cells were treated with Compound (A) for 24 hours. Cell lysates were analyzed for the expression of markers by Western Blotting. Gapdh, mTOR and S6 were used as a loading control for NFkB, phospho-mTOR, and phospho-S6 respectively. Lanes: A: Blank; B: 10 nM; C: 100 nM; D: 1000 nM.

phospho-S6 = test: Western blotting of markers in Jurkat cells; type: cell-based; details: 24 hours, 10, 100, 1000 nM (FIG. 4)
Procedure: as §5

phospho-mTOR = test: Western blotting of markers in Jurkat cells; type: cell-based; details: 24 hours, 10, 100, 1000 nM (FIG. 4)
Procedure: as §5

[5] = Body weight in NCI-H460 xenograft model; type: in vivo, female Balb/c nude mice; details: oral 30 mg/kg BID, 15 day period, Balb/c nude mice
Procedure: as §3

A549 cells [6] = test: Scratch-wound migration assay; type: cell-based; details: 10% FBS, 72 hours, 10-10,000 nM (FIG. 2)
Procedure: A scratch was made to a serum-starved monolayer of A549 cells followed by washing and incubation with a desired concentration of Compound (A) in media with 10% fetal bovine serum (FBS) for 72 hours. The distance between the two edges of the wound was measured and percent inhibition was calculated with respect to a control.

[7] = concentration causing 2-fold induction in caspase-3 signal

With O=C(Cc1ccc2ncccc2c1)Nc1ccc(-n2nc(C3CC3)cc2C2CC2)cc1 [Compound (A), N-(4-(3,5-dicyclopropyl-1H-pyrazol-1-yl)phenyl)-2-(quinolin-6-yl)acetamide] the caspase-3 induction (NCI-H1975 cells) was “dose-dependent increase”, the caspase-3 induction (NCH-H460 cells) was “dose-dependent increase” and the caspase-3 induction (A549 cells [1]) was “dose-dependent increase”. For the same compound, the “Apoptosis Emax” value (G-402) was 5.14, the “G1/S cell cycle block” value (G-402) was 3.74 µM and the “Apoptosis 2 Fold Induction” value (G-402; [7]) was 3.11 µM. For the same compound, the “Apoptosis Emax” value (DOHH-2) was 6.13, the “G1/S cell cycle block” value (DOHH-2) was 3.23 µM and the “Apoptosis 2 Fold Induction” value (DOHH-2; [7]) was 3.03 µM. For the same compound, the “Apoptosis Emax” value (SK-BR-3) was 8.32, the “G1/S cell cycle block” value (SK-BR-3) was 6.11 µM and the “Apoptosis 2 Fold Induction” value (SK-BR-3; [7]) was 11.6 µM. For the same compound, the “Apoptosis Emax” value (NCI-H661) was 13.23, the “G1/S cell cycle block” value (NCI-H661) was 2.8 µM and the “Apoptosis 2 Fold Induction” value (NCI-H661; [7]) was 17.64 µM. For the same compound, the “Apoptosis Emax” value (C32) was 4.7, the “G1/S cell cycle block” value (C32) was 10.7 µM and the “Apoptosis 2 Fold Induction” value (C32; [7]) was 80.52 µM. The “Apoptosis Emax” value (SH-4) was 72.67, the “G1/S cell cycle block” value (SH-4) was 16.6 µM and the “Apoptosis 2 Fold Induction” value (SH-4; [7]) was 15.59 µM. The “Apoptosis Emax” value (AGS) was 26.62, the “G1/S cell cycle block” value (AGS) was 3.16 µM and the “Apoptosis 2 Fold Induction” value (AGS; [7]) was 5.04 µM. The “Apoptosis Emax” value (A427) was 16.1, the “G1/S cell cycle block” value (A427) was 3.52 µM and the “Apoptosis 2 Fold Induction” value (A427; [7]) was 2.77 µM. The “Apoptosis Emax” value (Hs 578T) was 1.19, the “G1/S cell cycle block” value (Hs 578T) was 4.56 µM and the “Apoptosis Emax” value (U266B1) was 4.88. The “G1/S cell cycle block” value (U266B1) was 3.56 µM, the “Apoptosis 2 Fold Induction” value (U266B1; [7]) was 11.11 µM and the “Apoptosis Emax” value (SW1088) was 8.54. The “G1/S cell cycle block” value (SW1088) was 33 µM, the “Apoptosis 2 Fold Induction” value (SW1088; [7]) was 75.51 µM and the “Apoptosis Emax” value (MDA MB 468) was 8.86. The “G1/S cell cycle block” value (MDA MB 468) was 7.81 µM, the “Apoptosis 2 Fold Induction” value (MDA MB 468; [7]) was 3.02 µM and the “Apoptosis Emax” value (A7) was 55.74. For the same compound, the “G1/S cell cycle block” value (A7) was 2.78 µM, the “Apoptosis 2 Fold Induction” value (A7; [7]) was 2.22 µM and the “Apoptosis Emax” value (ARH-77) was 5.36. The “G1/S cell cycle block” value (ARH-77) was 7.02 µM, the “Apoptosis 2 Fold Induction” value (ARH-77; [7]) was 30.74 µM and the “Apoptosis Emax” value (PANC-1) was 11.49. For the same compound, the “G1/S cell cycle block” value (PANC-1) was 7.32 µM, the “Apoptosis 2 Fold Induction” value (PANC-1; [7]) was 8.83 µM and the “Apoptosis Emax” value (Calu6) was 3.34. The “G1/S cell cycle block” value (Calu6) was 10.5 µM, the “Apoptosis 2 Fold Induction” value (Calu6; [7]) was 3.73 µM and the “Apoptosis Emax” value (RKOE6) was 14.43. The “G1/S cell cycle block” value (RKOE6) was 4.85 µM, the “Apoptosis 2 Fold Induction” value (RKOE6; [7]) was 4.64 µM and the “Apoptosis Emax” value (HCT-116) was 20.36. For the same compound, the “G1/S cell cycle block” value (HCT-116) was 1.89 µM, the “Apoptosis 2 Fold Induction” value (HCT-116; [7]) was 2.97 µM and the “Apoptosis Emax” value (SKO-007) was 15.45. For the same compound, the “G1/S cell cycle block” value (SKO-007) was 5.2 µM, the “Apoptosis 2 Fold Induction” value (SKO-007; [7]) was 6.42 µM and the “Apoptosis Emax” value (ACHN) was 2.86. For the same compound, the “G1/S cell cycle block” value (ACHN) was 10.3 µM, the “Apoptosis 2 Fold Induction” value (ACHN; [7]) was 11.23 µM and the “Apoptosis Emax” value (PC-3) was 12.31. For the same compound, the “G1/S cell cycle block” value (PC-3) was 8.13 µM, the “Apoptosis 2 Fold Induction” value (PC-3; [7]) was 2.05 µM and the “Apoptosis Emax” value (769-P) was 10.3. The “G1/S cell cycle block” value (769-P) was 4.82 µM, the “Apoptosis 2 Fold Induction” value (769-P; [7]) was 24.71 µM and the “Apoptosis Emax” value (786-O) was 4.67. For the same compound, the “G1/S cell cycle block” value (786-O) was 4.4 µM, the “Apoptosis 2 Fold Induction” value (786-O; [7]) was 10.31 µM and the “Apoptosis Emax” value (Wi38) was 0.49. The “G1/S cell cycle block” value (Wi38) was 8.82 µM, the “Apoptosis Emax” value (MDA MB 231) was 4.35 and the “Apoptosis 2 Fold Induction” value (MDA MB 231; [7]) was 18.4 µM. The “Apoptosis Emax” value (T98G) was 21.74, the “G1/S cell cycle block” value (T98G) was 41.3 µM and the “Apoptosis 2 Fold Induction” value (T98G; [7]) was 53.96 µM. The “Apoptosis Emax” value (AsPC-1) was 2.07, the “G1/S cell cycle block” value (AsPC-1) was 3.64 µM and the “Apoptosis Emax” value (RD) was 3.03. For the same compound, the “G1/S cell cycle block” value (RD) was 7.08 µM, the “Apoptosis 2 Fold Induction” value (RD; [7]) was 11.45 µM and the “Apoptosis Emax” value (DB) was 16.8. For the same compound, the “G1/S cell cycle block” value (DB) was 7.03 µM, the “Apoptosis 2 Fold Induction” value (DB; [7]) was 4.08 µM and the “Apoptosis Emax” value (RKO-AS45-1) was 40.99. The “G1/S cell cycle block” value (RKO-AS45-1) was 3.94 µM, the “Apoptosis 2 Fold Induction” value (RKO-AS45-1; [7]) was 3.15 µM and the “tumor growth inhibition (TGI) value” ([2]; day 15, oral 30 mg/kg BID) was 38.3%. For the same compound, the “inhibition of tumor growth” value ([2]; oral 30 mg/kg BID, 15 day period) was “significant inhibition of tumor growth”, the GI50 [3] was 300 to 3000 nM and the “growth of normal lung cell line WI-38” value [4] was “did not affect growth”. For the same compound, the “NFkB expression (Western blot)” value (NFkB) was “dose-dependent reduction”, the “phospho-S6 expression (Western blot)” value (phospho-S6) was “dose-dependent reduction” and the “phospho-mTOR expression (Western blot)” value (phospho-mTOR) was “dose-dependent reduction”. The mice body weight [5] was “did not affect the mice body weight” and the “FBS induced migration of A549 cells” value (A549 cells [6]) was “dose-dependent reduction”.

For CC(=O)O[C@H]1C(=O)[C@@]2(C)[C@H]([C@H](OC(=O)c3ccccc3)[C@]3(O)C[C@H](OC(=O)[C@H](O)[C@@H](NC(=O)c4ccccc4)c4ccccc4)C(C)=C1C3(C)C)[C@]1(OC(C)=O)CO[C@@H]1C[C@@H]2O [taxol, reference compound], the “tumor growth inhibition (TGI) value” ([2]; day 15, intravenous 10 mg/kg Q3D) was 36.7%.
